Results published in PubChem BioAssay (NCI).
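96-well plates; 48 h exposure; 5 concentrations. Endpoints by linear interpolation between flanking doses. Not reached: highest tested concentration assigned. GI50 marks 50% less growth. The concentration for full growth arrest is given as TGI.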

Columns and labels:
Test in all cases: NCI anticancer screen, dose series, 48 h
SW-620 colon = system: SW-620 colon
SK-MEL-2 melanoma = system: SK-MEL-2 melanoma
786-0 renal = system: 786-0 renal
OVCAR-8 ovarian = system: OVCAR-8 ovarian
M14 melanoma = system: M14 melanoma
IGROV1 ovarian = system: IGROV1 ovarian
HCC-2998 colon = system: HCC-2998 colon
SN12C renal = system: SN12C renal
PC-3 prostate = system: PC-3 prostate
CAKI-1 renal = system: CAKI-1 renal

**Q.** Which GI50 (SW-620 colon) does the source give for `O=C1C(Cl)=C(Nc2ccc3c(c2NC2=C(Cl)C(=O)c4ccccc4C2=O)C(=O)c2ccccc2C3=O)C(=O)c2ccccc21` here?
**A.** 2.93 µM

**Q.** And the TGI (SW-620 colon)?
**A.** 10.6 µM

**Q.** And the GI50 (SK-MEL-2 melanoma)?
**A.** 1.82 µM

**Q.** What about the TGI (SK-MEL-2 melanoma) of the same molecule?
**A.** 6.33 µM

**Q.** And the GI50 (786-0 renal)?
**A.** 2.91 µM

**Q.** And the TGI (786-0 renal)?
**A.** 9.6 µM

**Q.** What about the GI50 (OVCAR-8 ovarian) of the same molecule?
**A.** 2.72 µM

**Q.** And the TGI (OVCAR-8 ovarian)?
**A.** 9.6 µM

**Q.** And the GI50 (M14 melanoma)?
**A.** 1.02 µM

**Q.** And the TGI (M14 melanoma)?
**A.** 2.29 µM

**Q.** What about the GI50 (IGROV1 ovarian) of the same molecule?
**A.** 1.62 µM

**Q.** What about the TGI (IGROV1 ovarian) of the same molecule?
**A.** 4.25 µM

**Q.** And the GI50 (HCC-2998 colon)?
**A.** 3.26 µM

**Q.** And the TGI (HCC-2998 colon)?
**A.** 10.7 µM

**Q.** And the GI50 (SN12C renal)?
**A.** 1.73 µM

**Q.** And the TGI (SN12C renal)?
**A.** 4.46 µM

**Q.** What about the GI50 (PC-3 prostate) of the same molecule?
**A.** 1.92 µM

**Q.** What about the TGI (PC-3 prostate) of the same molecule?
**A.** 12.5 µM

**Q.** What does the source list for `CC(=O)OC1C/C(C)=C/[C@H](O)CC(C)/C=C/[C@@]2(C)CCC(C(C)(C)O)C12` (some centres not stated)?
**A.** TGI (SW-620 colon): > 100 µM; TGI (SK-MEL-2 melanoma): > 100 µM; TGI (786-0 renal): > 100 µM; TGI (OVCAR-8 ovarian): > 100 µM; TGI (M14 melanoma): > 100 µM; TGI (IGROV1 ovarian): > 100 µM; TGI (CAKI-1 renal): > 100 µM; TGI (HCC-2998 colon): > 100 µM; TGI (SN12C renal): > 100 µM

**Q.** `C[n+]1ccc2[nH]c3ccccc3c2c1` was tested. Which TGI (SW-620 colon) did it give?
**A.** > 100 µM

**Q.** And the TGI (SK-MEL-2 melanoma)?
**A.** > 100 µM

**Q.** What about the TGI (786-0 renal) of the same molecule?
**A.** > 100 µM

**Q.** What about the TGI (OVCAR-8 ovarian) of the same molecule?
**A.** > 100 µM

**Q.** And the TGI (M14 melanoma)?
**A.** > 100 µM

**Q.** And the TGI (IGROV1 ovarian)?
**A.** > 100 µM

**Q.** What about the TGI (CAKI-1 renal) of the same molecule?
**A.** > 100 µM

**Q.** What about the TGI (HCC-2998 colon) of the same molecule?
**A.** > 100 µM

**Q.** What about the TGI (SN12C renal) of the same molecule?
**A.** > 100 µM

**Q.** Which TGI (SW-620 colon) does the source give for `CCCCCC/C=C\CCCCCCCCCc1c(O)c(OC)cc(O)c1CN(C)C` here?
**A.** > 100 µM

**Q.** And the TGI (SK-MEL-2 melanoma)?
**A.** 40.1 µM

**Q.** And the TGI (786-0 renal)?
**A.** 3.26 µM

**Q.** And the TGI (OVCAR-8 ovarian)?
**A.** 23.8 µM

**Q.** What about the TGI (M14 melanoma) of the same molecule?
**A.** 27.8 µM

**Q.** And the TGI (IGROV1 ovarian)?
**A.** 11 µM

**Q.** What about the TGI (CAKI-1 renal) of the same molecule?
**A.** 26.9 µM

**Q.** And the TGI (SN12C renal)?
**A.** 20.7 µM

**Q.** What about the TGI (PC-3 prostate) of the same molecule?
**A.** 14.5 µM

**Q.** Which TGI (SW-620 colon) does the source give for `N#CNc1nc(C(=O)Nc2ccc(Cl)cc2)cc(-c2ccccc2)n1` here?
**A.** > 100 µM

**Q.** And the TGI (SK-MEL-2 melanoma)?
**A.** > 100 µM

**Q.** And the TGI (786-0 renal)?
**A.** > 100 µM

**Q.** And the TGI (OVCAR-8 ovarian)?
**A.** > 100 µM

**Q.** What about the TGI (M14 melanoma) of the same molecule?
**A.** > 100 µM

**Q.** What about the TGI (IGROV1 ovarian) of the same molecule?
**A.** > 100 µM

**Q.** And the TGI (CAKI-1 renal)?
**A.** > 100 µM

**Q.** What about the TGI (HCC-2998 colon) of the same molecule?
**A.** > 100 µM

**Q.** And the TGI (SN12C renal)?
**A.** > 100 µM

**Q.** With `CCN1CCC(O)(c2ccc(Cl)c(Cl)c2)C(C(=O)c2ccc(Cl)c(Cl)c2)C1` (configuration not stated) as the molecule, how does the TGI (SW-620 colon) read?
**A.** 38.7 µM

**Q.** What about the TGI (SK-MEL-2 melanoma) of the same molecule?
**A.** 31.9 µM

**Q.** And the TGI (786-0 renal)?
**A.** 29.1 µM

**Q.** And the TGI (OVCAR-8 ovarian)?
**A.** 41 µM

**Q.** What about the TGI (M14 melanoma) of the same molecule?
**A.** 30.9 µM

**Q.** And the TGI (IGROV1 ovarian)?
**A.** 41.3 µM

**Q.** What about the TGI (CAKI-1 renal) of the same molecule?
**A.** 32.6 µM

**Q.** What about the TGI (HCC-2998 colon) of the same molecule?
**A.** 35.1 µM

**Q.** And the TGI (SN12C renal)?
**A.** 35 µM

**Q.** With `CC(=O)[CH-]C(=O)c1ccccc1.CC(=O)[CH-]C(=O)c1ccccc1.CC[O-].O=C1C=C([O-])C(=O)c2ccccc21.[Ti+4]` as the molecule, how does the GI50 (SW-620 colon) read?
**A.** 33 µM

**Q.** What about the TGI (SW-620 colon) of the same molecule?
**A.** > 100 µM

**Q.** And the GI50 (SK-MEL-2 melanoma)?
**A.** 9.07 µM

**Q.** What about the TGI (SK-MEL-2 melanoma) of the same molecule?
**A.** 86.3 µM

**Q.** What about the GI50 (786-0 renal) of the same molecule?
**A.** > 100 µM

**Q.** And the TGI (786-0 renal)?
**A.** > 100 µM

**Q.** And the GI50 (OVCAR-8 ovarian)?
**A.** > 100 µM

**Q.** What about the TGI (OVCAR-8 ovarian) of the same molecule?
**A.** > 100 µM

**Q.** And the GI50 (M14 melanoma)?
**A.** 18 µM

**Q.** What about the TGI (M14 melanoma) of the same molecule?
**A.** > 100 µM

**Q.** What about the GI50 (IGROV1 ovarian) of the same molecule?
**A.** > 100 µM

**Q.** What about the TGI (IGROV1 ovarian) of the same molecule?
**A.** > 100 µM

**Q.** And the GI50 (CAKI-1 renal)?
**A.** > 100 µM

**Q.** What about the TGI (CAKI-1 renal) of the same molecule?
**A.** > 100 µM

**Q.** What about the GI50 (HCC-2998 colon) of the same molecule?
**A.** 23.1 µM

**Q.** And the TGI (HCC-2998 colon)?
**A.** > 100 µM

**Q.** What about the GI50 (SN12C renal) of the same molecule?
**A.** 97.9 µM

**Q.** What about the TGI (SN12C renal) of the same molecule?
**A.** > 100 µM

**Q.** How did the TGI (SW-620 colon) turn out when `CCOC(CN(C)C(=O)OCC(Cl)(Cl)Cl)OCC` was run?
**A.** > 100 µM

**Q.** What about the TGI (786-0 renal) of the same molecule?
**A.** > 100 µM

**Q.** And the TGI (OVCAR-8 ovarian)?
**A.** > 100 µM

**Q.** And the TGI (M14 melanoma)?
**A.** > 100 µM

**Q.** And the TGI (IGROV1 ovarian)?
**A.** > 100 µM

**Q.** What about the TGI (CAKI-1 renal) of the same molecule?
**A.** > 100 µM

**Q.** And the TGI (HCC-2998 colon)?
**A.** > 100 µM

**Q.** What about the TGI (SN12C renal) of the same molecule?
**A.** > 100 µM

**Q.** What about the TGI (PC-3 prostate) of the same molecule?
**A.** > 100 µM

**Q.** `CCc1ccccc1NC(=O)C1=C(C)NC(C)=C(C(=O)Nc2ccccc2CC)C1c1ccc(NC(C)=O)cc1` was tested. Which TGI (SW-620 colon) did it give?
**A.** > 100 µM

**Q.** What about the TGI (SK-MEL-2 melanoma) of the same molecule?
**A.** 70.1 µM

**Q.** What about the TGI (786-0 renal) of the same molecule?
**A.** > 100 µM

**Q.** And the TGI (OVCAR-8 ovarian)?
**A.** > 100 µM

**Q.** And the TGI (M14 melanoma)?
**A.** > 100 µM

**Q.** What about the TGI (IGROV1 ovarian) of the same molecule?
**A.** > 100 µM

**Q.** And the TGI (CAKI-1 renal)?
**A.** > 100 µM

**Q.** What about the TGI (HCC-2998 colon) of the same molecule?
**A.** 48.6 µM

**Q.** And the TGI (SN12C renal)?
**A.** > 100 µM

**Q.** How did the TGI (SW-620 colon) turn out when `COc1ccc(CC(C#N)c2cc(OC)c(OC)c(OC)c2)cc1` (configuration not stated) was run?
**A.** > 100 µM

**Q.** What about the TGI (SK-MEL-2 melanoma) of the same molecule?
**A.** > 100 µM

**Q.** And the TGI (786-0 renal)?
**A.** > 100 µM

**Q.** And the TGI (OVCAR-8 ovarian)?
**A.** 13 µM

**Q.** What about the TGI (M14 melanoma) of the same molecule?
**A.** > 100 µM

**Q.** What about the TGI (IGROV1 ovarian) of the same molecule?
**A.** > 100 µM

**Q.** And the TGI (CAKI-1 renal)?
**A.** > 81 µM

**Q.** What about the TGI (SN12C renal) of the same molecule?
**A.** > 79.9 µM

**Q.** What about the TGI (PC-3 prostate) of the same molecule?
**A.** > 100 µM

**Q.** With `O=C(O)CCc1nc(-c2ccccc2)c(-c2ccccc2)o1` as the molecule, how does the TGI (SW-620 colon) read?
**A.** > 100 µM

**Q.** And the TGI (SK-MEL-2 melanoma)?
**A.** > 100 µM

**Q.** And the TGI (786-0 renal)?
**A.** > 100 µM

**Q.** And the TGI (OVCAR-8 ovarian)?
**A.** > 100 µM

**Q.** What about the TGI (M14 melanoma) of the same molecule?
**A.** > 100 µM

**Q.** What about the TGI (IGROV1 ovarian) of the same molecule?
**A.** > 100 µM

**Q.** And the TGI (CAKI-1 renal)?
**A.** > 100 µM

**Q.** And the TGI (SN12C renal)?
**A.** > 100 µM

**Q.** What about the TGI (PC-3 prostate) of the same molecule?
**A.** > 100 µM
